Experimental data as given in patent US20070149580A1, “USE OF PEROXISOME PROLIFERATOR ACTIVATED RECEPTOR DELTA AGONISTS FOR THE TREATMENT OF MS AND OTHER DEMYELINATING DISEASES” (AVENTIS PHARMACEUTICALS INC., priority 2004, published 2007).
pEC50: −log10 of the molar value.

Assays:
Human PPAR gamma = molecular target: T1, Human PPAR gamma (Homo sapiens, UniProt P37231); experiment: Cellular PPAR gamma luciferase reporter assay; assay type: cell-based
T1 construct: expressed in transfected cells
T1 sequence (P37231 1-505): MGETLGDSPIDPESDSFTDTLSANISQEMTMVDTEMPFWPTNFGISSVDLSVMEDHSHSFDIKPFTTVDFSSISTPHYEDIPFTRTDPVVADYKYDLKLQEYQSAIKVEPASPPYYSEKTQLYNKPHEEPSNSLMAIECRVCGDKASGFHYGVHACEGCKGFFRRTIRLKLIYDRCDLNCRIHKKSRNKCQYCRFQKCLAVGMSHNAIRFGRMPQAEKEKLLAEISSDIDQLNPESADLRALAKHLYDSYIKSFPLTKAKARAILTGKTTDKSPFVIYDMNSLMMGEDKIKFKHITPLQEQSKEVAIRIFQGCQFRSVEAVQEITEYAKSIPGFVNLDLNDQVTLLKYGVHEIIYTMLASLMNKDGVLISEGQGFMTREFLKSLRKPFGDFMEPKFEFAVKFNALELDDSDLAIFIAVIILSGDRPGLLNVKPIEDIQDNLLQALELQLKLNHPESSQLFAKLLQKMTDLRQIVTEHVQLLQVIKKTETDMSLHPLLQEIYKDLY
Description: Cell Based PPAR Gamma Assay Protocol
To perform cell based assays a luciferase assay is performed in 96 well plates as follows:
Dilution steps and addition of diluted compounds is done using a Beckman Biomek 2000 or Beckman FX robot.
• Aspirate medium from cells • Freeze plates at −20° C. (optional) • Thaw plates for 30 min (if necessary) • Add 50 μl Bright-Glo-Luciferase Assay Reagent (Promega, Cat. No. E2650) • Incubate for 10 min in the dark • Measure luminescence 2 sec per well (Wallac Microbeta) Data Analysis: […]

Mouse PPAR delta = molecular target: T2, Mouse PPAR delta (Mus musculus, UniProt P35396); experiment: Mouse PPAR delta GAL4/luciferase reporter assay; assay type: cell-based
T2 construct: expressed in transfected cells
T2 sequence (P35396 1-440): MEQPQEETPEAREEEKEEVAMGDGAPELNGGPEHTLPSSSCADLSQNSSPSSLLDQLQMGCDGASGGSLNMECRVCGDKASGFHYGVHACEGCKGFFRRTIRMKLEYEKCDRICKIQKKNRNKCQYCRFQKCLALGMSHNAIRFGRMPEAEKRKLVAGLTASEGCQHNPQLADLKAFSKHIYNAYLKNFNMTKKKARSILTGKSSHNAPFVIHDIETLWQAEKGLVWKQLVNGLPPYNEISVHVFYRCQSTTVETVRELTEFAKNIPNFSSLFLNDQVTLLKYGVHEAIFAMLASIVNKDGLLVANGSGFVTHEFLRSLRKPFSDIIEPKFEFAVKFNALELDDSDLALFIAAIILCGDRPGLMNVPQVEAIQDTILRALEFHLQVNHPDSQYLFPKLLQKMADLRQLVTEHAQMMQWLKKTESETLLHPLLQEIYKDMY
Description: The optimum nuclear receptor selectivity profile is determined by the GAL4/luciferase reporter assays.

human PPAR alpha = molecular target: T3, human PPAR alpha (Homo sapiens, UniProt Q07869); experiment: Cellular PPAR alpha GAL4/luciferase reporter assay (HEK reporter cell line); assay type: cell-based
T3 construct: human PPAR alpha receptor (amino acids S167-Y468); expressed in transfected cells; host or cells: HEK cells, stably transfected (pcDNA3, CMV promoter)
T3 sequence (Q07869 167-468): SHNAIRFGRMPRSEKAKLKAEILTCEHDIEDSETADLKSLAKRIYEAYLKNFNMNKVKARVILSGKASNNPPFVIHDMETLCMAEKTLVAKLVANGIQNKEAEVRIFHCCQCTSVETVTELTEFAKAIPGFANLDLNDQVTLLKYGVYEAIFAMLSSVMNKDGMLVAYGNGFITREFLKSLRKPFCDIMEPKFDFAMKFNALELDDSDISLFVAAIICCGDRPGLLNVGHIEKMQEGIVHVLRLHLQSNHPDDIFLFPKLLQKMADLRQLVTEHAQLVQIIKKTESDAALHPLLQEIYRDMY
Description: The potency of substances which bind to human PPAR alpha and activate it in an agonistic manner is analyzed using a stably transfected HEK cell line (HEK=human embryo kidney) which is referred to here as PPAR alpha reporter cell line. It contains two genetic elements, a luciferase reporter element (pdeltaM-GAL4-Luc-Zeo) and a PPAR alpha fusion protein (GR-GAL4-humanPPAR alpha-LBD) which mediates expression of the luciferase reporter element depending on a PPAR alpha ligand. The stably and constitutively expressed fusion protein GR-GAL4-humanPPAR alpha-LBD binds in the cell nucleus of the PPAR alpha reporter cell line via the GAL4 protein portion to the GAL4 DNA binding motifs 5′-upstream of the luciferase reporter element which is stably integrated in the genome of the cell line. […] PPAR alpha ligands bind and activate the PPAR alpha fusion protein and thereby stimulate the expression of the luciferase reporter gene.
The finished PPAR alpha reporter cell line which contains a luciferase reporter element and constitutively expresses the PPAR alpha fusion protein (GR-GAL4-human PPAR alpha-LBD) was isolated by selection with zeocin (0.5 mg/ml) and G418 (0.5 mg/ml).

human PPAR delta = molecular target: T4, human PPAR delta (Homo sapiens, UniProt Q03181); experiment: cell-based
T4 sequence (Q03181 139-441): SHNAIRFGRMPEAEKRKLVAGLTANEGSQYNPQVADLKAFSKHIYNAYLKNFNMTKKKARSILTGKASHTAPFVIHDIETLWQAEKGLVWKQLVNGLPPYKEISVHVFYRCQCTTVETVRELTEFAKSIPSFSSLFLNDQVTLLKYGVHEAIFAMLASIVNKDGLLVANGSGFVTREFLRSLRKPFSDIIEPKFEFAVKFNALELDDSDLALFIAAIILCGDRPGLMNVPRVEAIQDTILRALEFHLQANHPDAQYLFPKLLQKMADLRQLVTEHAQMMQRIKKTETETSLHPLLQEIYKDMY

CCCc1c(OCCCOc2ccc(OCC(=O)O)cc2)ccc(C(C)=O)c1O [Compound 2]
pEC50 (Human PPAR gamma): 5.96 | pEC50 (Mouse PPAR delta): 6.00 | pEC50 (human PPAR alpha): 5.96 | pEC50 (human PPAR delta): 7.41
